Measurements reported in patent publication US20100168225A1, “Small-Molecule Hepatitis C Virus (HCV) NS3/4A Serine Protease Inhibitors” (priority 2007, published 2010).

What follows are compounds tested against SARS 3CL^PRO (Severe acute respiratory syndrome coronavirus, UniProt P0C6X7) (assay: biochemical). Conditions: ID50.

SMILES | IC50 [µM]
O=c1ccc2ccc(O)c(O)c2o1 [Compound C10, Daphnetin] | 168
O=c1oc2cc(O)c(O)cc2cc1O [Compound C11, 3-hydroxyesculetin] | 97
CC(=O)Nc1cc2cc(OC(C)=O)c(OC(C)=O)cc2oc1=O [Compound C12, 3-aminoacyl-6,7-diacetoxycoumarin] | 183
O=c1oc2c(O)c(O)ccc2cc1O [Compound C21, 3,7,8-trihydroxycoumarin] | 100
CC(=O)Nc1cc2ccc(OC(C)=O)c(OC(C)=O)c2oc1=O [Compound C22, 3-aminoacyl-7,8-diacetoxycoumarin] | 184

Same assay, conditions: ID50 (μM) (by kinetic assay) SARS 3CL^PRO

SMILES | IC50 [µM]
O=c1oc2cc(O)c(O)cc2cc1O [Compound C11, 3-hydroxyesculetin] | 96.6
